The target of this experiment is Galectin-7 (Homo sapiens, UniProt P47929). Briefly: Binding affinity to human Galectin-7 assessed as dissociation constant by competitive fluorescence polarization assay. A general note: Fluorescence polarisation rises when a labelled molecule tumbles more slowly, as on binding a larger partner.
Sequence of Galectin-7 (P47929 whole entry): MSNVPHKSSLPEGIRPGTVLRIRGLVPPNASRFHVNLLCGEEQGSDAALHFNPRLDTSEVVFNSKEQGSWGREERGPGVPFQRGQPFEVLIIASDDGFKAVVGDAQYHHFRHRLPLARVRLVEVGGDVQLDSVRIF

`O=S(=O)(Nc1ccccc1-c1cn([C@@H]2[C@@H](O)[C@@H](Sc3ccc(Cl)c(Cl)c3)O[C@H](CO)[C@@H]2O)nn1)c1cc(C(F)(F)F)cc(C(F)(F)F)c1`: the dissociation constant (Kd) (usually the equilibrium constant for the complex coming apart) was over 600 µM.

Turning to `CO[C@H]1O[C@H](CO)[C@H](O)[C@H](n2cc(-c3ccccc3NS(=O)(=O)c3cc(C(F)(F)F)cc(C(F)(F)F)c3)nn2)[C@H]1O`, the Kd is over 1000 µM.

The values are drawn from ChEMBL document CHEMBL6096646, “Sulfonamide-derivatized galactosides selectively target an unexplored binding site in the galectin-9N-terminal domain” (Bioorg Med Chem, 2024).
